Patent publication US12441736B2, “KIF18A inhibitors” (AMGEN INC., priority 2018, dated 2025)

Target: T1, Recombinant human KIF18A (1-467 His-tagged) protein (Homo sapiens, UniProt Q8NI77)
T1 construct: Recombinant human KIF18A (1-467 His-tagged) protein; His; made in house
Test: KIF18A Enzyme Assay: microtubule-stimulated ATPase activity (ADP-Glo)
Assay type: biochemical
Conditions: 30 nM KIF18A, 30 μg/mL pig microtubules, 75 μM ATP, ADP-Glo luminescence
Summary of the method: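 IC50 comes from a four-parameter logistic fit over a 22-point, 2-fold series, with ADP quantified by ADP-Glo luminescence. Reactions ran at room temperature: compound plus 30 nM KIF18A(1-467)-His for 15 min, then 75 μM ATP (Km) for 15 min. The buffer held pig microtubules at 30 μg/mL and 1 μM taxol.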

T1 sequence (Q8NI77 1-467): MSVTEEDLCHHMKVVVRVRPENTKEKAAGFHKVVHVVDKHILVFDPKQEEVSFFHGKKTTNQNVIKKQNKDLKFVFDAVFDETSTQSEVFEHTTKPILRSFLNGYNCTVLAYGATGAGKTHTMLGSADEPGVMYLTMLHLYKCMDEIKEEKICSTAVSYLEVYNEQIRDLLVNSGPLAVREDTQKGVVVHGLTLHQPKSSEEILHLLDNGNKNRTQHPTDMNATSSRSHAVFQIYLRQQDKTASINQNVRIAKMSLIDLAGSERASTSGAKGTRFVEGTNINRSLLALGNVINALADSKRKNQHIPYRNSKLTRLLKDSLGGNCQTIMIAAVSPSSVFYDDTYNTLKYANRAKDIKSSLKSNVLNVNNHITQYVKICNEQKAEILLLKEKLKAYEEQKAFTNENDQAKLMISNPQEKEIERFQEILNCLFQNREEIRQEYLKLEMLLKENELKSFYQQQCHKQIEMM
T1 sequence (P02550 whole entry partner): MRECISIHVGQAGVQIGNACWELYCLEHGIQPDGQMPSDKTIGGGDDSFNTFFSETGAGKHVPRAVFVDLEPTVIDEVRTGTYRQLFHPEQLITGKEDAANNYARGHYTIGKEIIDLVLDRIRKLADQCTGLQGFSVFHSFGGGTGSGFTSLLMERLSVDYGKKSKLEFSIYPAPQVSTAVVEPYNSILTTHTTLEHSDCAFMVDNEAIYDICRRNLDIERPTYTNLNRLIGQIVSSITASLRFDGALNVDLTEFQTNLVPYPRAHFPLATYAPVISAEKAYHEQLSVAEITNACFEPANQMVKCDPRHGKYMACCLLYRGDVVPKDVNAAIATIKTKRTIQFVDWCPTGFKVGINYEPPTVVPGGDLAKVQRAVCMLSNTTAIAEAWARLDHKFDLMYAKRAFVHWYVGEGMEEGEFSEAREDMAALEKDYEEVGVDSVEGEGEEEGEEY
T1 sequence (P02554 whole entry partner): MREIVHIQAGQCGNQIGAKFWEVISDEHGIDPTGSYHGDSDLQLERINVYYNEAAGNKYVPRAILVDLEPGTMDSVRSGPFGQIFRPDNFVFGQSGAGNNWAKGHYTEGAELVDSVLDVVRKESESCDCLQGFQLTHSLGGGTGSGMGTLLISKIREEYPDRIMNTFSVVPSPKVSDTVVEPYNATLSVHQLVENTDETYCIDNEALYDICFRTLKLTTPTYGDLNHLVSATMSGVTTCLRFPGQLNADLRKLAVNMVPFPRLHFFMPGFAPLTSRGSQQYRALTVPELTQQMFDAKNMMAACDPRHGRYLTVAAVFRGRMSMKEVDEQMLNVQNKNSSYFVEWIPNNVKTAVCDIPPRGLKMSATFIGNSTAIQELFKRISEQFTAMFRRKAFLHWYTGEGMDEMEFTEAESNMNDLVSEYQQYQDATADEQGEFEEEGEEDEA

Compound | IC50
CC(C)(CO)Nc1cccc(NC(=O)c2ccc(NC(C)(C)CO)nc2N2CCC3(CC2)CC3)n1 [Example 162, 2-(6-azaspiro[2.5]octan-6-yl)-6-((1-hydroxy-2-methyl-2-propanyl)amino)-N-(6-((1-hydroxy-2-methyl-2-propanyl)amino)-2-pyridinyl)-3-pyridinecarboxamide] | 70.7 nM
CC(C)(CO)Nc1ccc(C(=O)Nc2cccc(N3CC4(COC4)C3)n2)c(N2CCC3(CC2)CC3)n1 [Example 163, 2-(6-azaspiro[2.5]octan-6-yl)-6-((1-hydroxy-2-methyl-2-propanyl)amino)-N-(6-(2-oxa-6-azaspiro[3.3]heptan-6-yl)-2-pyridinyl)-3-pyridinecarboxamide] | 159 nM
CC(CO)(CO)Nc1ccc(C(=O)Nc2cccc(Br)n2)c(N2CCC3(CC2)CC3)n1 [Example 164, 2-(6-azaspiro[2.5]octan-6-yl)-N-(6-bromo-2-pyridinyl)-6-((1,3-dihydroxy-2-methyl-2-propanyl)amino)-3-pyridinecarboxamide] | 2750 nM
C[C@@H]1CN(c2cccc(NC(=O)c3ccc(N4C(=O)OCC4(C)C)nc3N3CCC4(CC3)CC4)n2)CCO1 [Example 165, 2-(6-azaspiro[2.5]octan-6-yl)-6-(4,4-dimethyl-2-oxo-1,3-oxazolidin-3-yl)-N-(6-((2R)-2-methyl-4-morpholinyl)-2-pyridinyl)-3-pyridinecarboxamide] | 663 nM
C[C@@H]1CN(c2cccc(NC(=O)c3ccc(C(C)(O)CO)nc3N3CCC4(CC3)CC4)n2)CCO1 (stereo partly drawn) [Example 166, 6-(1,2-dihydroxypropan-2-yl)-N-(6-((R)-2-methylmorpholino)pyridin-2-yl)-2-(6-azaspiro[2.5]octan-6-yl)nicotinamide] | 62.5 nM
C[C@@H]1CN(c2cccc(NC(=O)c3ccc([C@](C)(O)CO)nc3N3CCC4(CC3)CC4)n2)CCO1 [Example 167, 2-(6-azaspiro[2.5]octan-6-yl)-6-((2S)-1,2-dihydroxy-2-propanyl)-N-(6-((2R)-2-methyl-4-morpholinyl)-2-pyridinyl)-3-pyridinecarboxamide] | 82.2 nM
C[C@@H]1CN(c2cccc(NC(=O)c3ccc([C@@](C)(O)CO)nc3N3CCC4(CC3)CC4)n2)CCO1 [Example 168, 2-(6-azaspiro[2.5]octan-6-yl)-6-((2R)-1,2-dihydroxy-2-propanyl)-N-(6-((2R)-2-methyl-4-morpholinyl)-2-pyridinyl)-3-pyridinecarboxamide] | 88.7 nM
CC(C)(C)NS(=O)(=O)c1cccc(NC(=O)c2ccc(C(C)(O)CO)nc2N2CCC3(CC2)CC3)n1 (stereo not shown) [Example 169, N-(6-(N-(tert-butyl)sulfamoyl)pyridin-2-yl)-6-(1,2-dihydroxypropan-2-yl)-2-(6-azaspiro[2.5]octan-6-yl)nicotinamide] | 89.3 nM
Cc1cc(NC(=O)c2ccc(NC(C)(C)CO)nc2N2CCC3(CC2)CC3)nc(NC(C)(C)CO)c1 [Example 170, 2-(6-azaspiro[2.5]octan-6-yl)-6-((1-hydroxy-2-methyl-2-propanyl)amino)-N-(6-((1-hydroxy-2-methyl-2-propanyl)amino)-4-methyl-2-pyridinyl)-3-pyridinecarboxamide] | 157 nM
CC(C)(C)NS(=O)(=O)c1cccc(NC(=O)c2ccc(F)nc2N2CCC3(CC2)CC3)n1 [Example 173, 2-(6-azaspiro[2.5]octan-6-yl)-6-fluoro-N-(6-((2-methyl-2-propanyl)sulfamoyl)-2-pyridinyl)-3-pyridinecarboxamide] | 643 nM
CC(C)(C)NS(=O)(=O)c1cccc(NC(=O)c2ccc(NC(C)(CO)CO)nc2N2CCC3(CC2)CC3)n1 [Example 174, 2-(6-azaspiro[2.5]octan-6-yl)-6-((1,3-dihydroxy-2-methyl-2-propanyl)amino)-N-(6-((2-methyl-2-propanyl)sulfamoyl)-2-pyridinyl)-3-pyridinecarboxamide] | 62.2 nM
C[C@@H]1COCCN1c1cccc(NC(=O)c2ccc(NC(C)(C)CO)nc2N2CCC3(CC2)CC3)n1 [Example 179, 2-(6-azaspiro[2.5]octan-6-yl)-6-((1-hydroxy-2-methyl-2-propanyl)amino)-N-(6-((3R)-3-methyl-4-morpholinyl)-2-pyridinyl)-3-pyridinecarboxamide] | 98 nM
CC1(C)OCC(c2ccc(C(=O)Nc3cccc(N4CCOCC4)n3)c(N3CCC4(CC3)CC4)n2)(C(F)(F)F)O1 (stereo not shown) [Example 180, 6-(2,2-dimethyl-4-(trifluoromethyl)-1,3-dioxolan-4-yl)-N-(6-morpholinopyridin-2-yl)-2-(6-azaspiro[2.5]octan-6-yl)nicotinamide] | 758 nM
O=C(Nc1cccc(N2CCOCC2)n1)c1ccc(C(O)(CO)C(F)(F)F)nc1N1CCC2(CC1)CC2 (stereo not shown) [Example 181, N-(6-morpholinopyridin-2-yl)-2-(6-azaspiro[2.5]octan-6-yl)-6-(1,1,1-trifluoro-2,3-dihydroxypropan-2-yl)nicotinamide] | 69.9 nM
C[C@@H]1CN(c2cccc(NC(=O)c3ccc(C(O)(CO)C(F)(F)F)nc3N3CCC4(CC3)CC4)n2)CCO1 (stereo partly drawn) [Example 182, N-(6-((R)-2-methylmorpholino)pyridin-2-yl)-2-(6-azaspiro[2.5]octan-6-yl)-6-(1,1,1-trifluoro-2,3-dihydroxypropan-2-yl)nicotinamide] | 79.5 nM
C[C@H]1COCCN1c1cccc(NC(=O)c2ccc(NC(C)(C)CO)nc2N2CCC3(CC2)CC3)n1 [Example 183, 2-(6-azaspiro[2.5]octan-6-yl)-6-((1-hydroxy-2-methyl-2-propanyl)amino)-N-(6-((3S)-3-methyl-4-morpholinyl)-2-pyridinyl)-3-pyridinecarboxamide] | 205 nM
Cc1cc(NC(=O)c2ccc(NC(C)(CO)CO)nc2N2CCC3(CC2)CC3)nc(N2CCOCC2)c1 [Example 184, 2-(6-azaspiro[2.5]octan-6-yl)-6-((1,3-dihydroxy-2-methyl-2-propanyl)amino)-N-(4-methyl-6-(4-morpholinyl)-2-pyridinyl)-3-pyridinecarboxamide] | 62 nM
CC(C)(CO)Nc1ccc(C(=O)Nc2cccc(N3CCN(C(=O)OC(C)(C)C)CC3)n2)c(N2CCC3(CC2)CC3)n1 [Example 185, 2-methyl-2-propanyl 4-(6-(((2-(6-azaspiro[2.5]octan-6-yl)-6-((1-hydroxy-2-methyl-2-propanyl)amino)-3-pyridinyl)carbonyl)amino)-2-pyridinyl)-1-piperazinecarboxylate] | 592 nM
CC(C)(CO)Nc1ccc(C(=O)Nc2cccc(N3CCOC(C(C)(C)O)C3)n2)c(N2CCC3(CC2)CC3)n1 (stereo not shown) [Example 186, 6-((1-hydroxy-2-methylpropan-2-yl)amino)-N-(6-(2-(2-hydroxypropan-2-yl)morpholino)pyridin-2-yl)-2-(6-azaspiro[2.5]octan-6-yl)nicotinamide] | 365 nM
CC(C)N1CCN(c2cccc(NC(=O)c3ccc(NC(C)(C)CO)nc3N3CCC4(CC3)CC4)n2)CC1 [Example 188, 2-(6-azaspiro[2.5]octan-6-yl)-6-((1-hydroxy-2-methyl-2-propanyl)amino)-N-(6-(4-(2-propanyl)-1-piperazinyl)-2-pyridinyl)-3-pyridinecarboxamide] | 2260 nM
CC(C)(CO)Nc1ccc(C(=O)Nc2cccc(N3CCO[C@H](CO)C3)n2)c(N2CCC3(CC2)CC3)n1 [Example 189, 2-(6-azaspiro[2.5]octan-6-yl)-N-(6-((2S)-2-(hydroxymethyl)-4-morpholinyl)-2-pyridinyl)-6-((1-hydroxy-2-methyl-2-propanyl)amino)-3-pyridinecarboxamide] | 110 nM
CC(C)(CO)Nc1ccc(C(=O)Nc2cccc(N3CCN(C4CC4)CC3)n2)c(N2CCC3(CC2)CC3)n1 [Example 190, 2-(6-azaspiro[2.5]octan-6-yl)-N-(6-(4-cyclopropyl-1-piperazinyl)-2-pyridinyl)-6-((1-hydroxy-2-methyl-2-propanyl)amino)-3-pyridinecarboxamide] | 693 nM
CC(C)(CO)Nc1ccc(C(=O)Nc2cccc(N3CCN(C4CCC4)CC3)n2)c(N2CCC3(CC2)CC3)n1 [Example 191, 2-(6-azaspiro[2.5]octan-6-yl)-N-(6-(4-cyclobutyl-1-piperazinyl)-2-pyridinyl)-6-((1-hydroxy-2-methyl-2-propanyl)amino)-3-pyridinecarboxamide] | 1240 nM
CCN1CCN(c2cccc(NC(=O)c3ccc(NC(C)(C)CO)nc3N3CCC4(CC3)CC4)n2)CC1 [Example 192, 2-(6-azaspiro[2.5]octan-6-yl)-N-(6-(4-ethyl-1-piperazinyl)-2-pyridinyl)-6-((1-hydroxy-2-methyl-2-propanyl)amino)-3-pyridinecarboxamide] | 1090 nM
COC(=O)C(F)(C(=O)OC)c1ccc(C(=O)Nc2cccc(S(=O)(=O)NC(C)(C)C)n2)c(N2CCC3(CC2)CC3)n1 [Example 193, dimethyl (6-(6-azaspiro[2.5]octan-6-yl)-5-((6-((2-methyl-2-propanyl)sulfamoyl)-2-pyridinyl)carbamoyl)-2-pyridinyl)(fluoro)propanedioate] | 239 nM
CC(C)(C)NS(=O)(=O)c1cccc(NC(=O)c2ccc(C(F)(CO)CO)nc2N2CCC3(CC2)CC3)n1 [Example 194, 2-(6-azaspiro[2.5]octan-6-yl)-6-(2-fluoro-1,3-dihydroxy-2-propanyl)-N-(6-((2-methyl-2-propanyl)sulfamoyl)-2-pyridinyl)-3-pyridinecarboxamide] | 283 nM
CC(C)(C)NS(=O)(=O)c1cccc(NC(=O)c2ccc(C(F)CO)nc2N2CCC3(CC2)CC3)n1 (stereo not shown) [Example 195, N-(6-(N-(tert-butyl)sulfamoyl)pyridin-2-yl)-6-(1-fluoro-2-hydroxyethyl)-2-(6-azaspiro[2.5]octan-6-yl)nicotinamide] | 196 nM
C[C@@H]1CN(c2cccc(NC(=O)c3ccc(C(F)(CO)CO)nc3N3CCC4(CC3)CC4)n2)CCO1 [Example 196, 2-(6-azaspiro[2.5]octan-6-yl)-6-(2-fluoro-1,3-dihydroxy-2-propanyl)-N-(6-((2R)-2-methyl-4-morpholinyl)-2-pyridinyl)-3-pyridinecarboxamide] | 158 nM
